The values that follow come from ChEMBL document CHEMBL5346910, “N-sulfonyl peptide-hybrids as a new class of dengue virus protease inhibitors” (Eur J Med Chem, 2023).

Broadly, the inhibition is the drop in the measured response relative to a control, in per cent. Usually CC50 stands for the concentration at which the toxic effect on the cells reaches its halfway point. Higher therefore signals lower toxicity to the cells. One may read the IC50 as the concentration that gives 50% inhibition. Higher therefore signals weaker potency in that assay. For orientation: Ki means a dissociation constant, usually derived from enzyme kinetics or from competition with a known ligand.

The target in series [1] is Prothrombin (Homo sapiens) (UniProt P00734). The series can be described thus: Inhibition of Thrombin (unknown origin) at 25 uM by biochemical assay relative to control.
Series [2] addresses Genome polyprotein (dengue virus type 2) (UniProt P29990). The series can be described thus: Inhibition of DENV-2 NS2B-NS3 protease at 50 uM by biochemical enzymatic assay relative to control.
For series [3], the target named is T1, Trypsin (Homo sapiens, UniProt P07477+P07478+P35030). The series can be described thus: Inhibition of trypsin (unknown origin) at 50 uM by biochemical assay relative to control. It is filed as protein assay.
A short description of series [4]: Cytotoxicity against human HeLa cells by CellTiter-Blue assay. The format is toxicity, cell-based. A general note: The colour change of resazurin is a common sign of viable cells or microbes.
In series [5] the target is Genome polyprotein (West Nile virus) (UniProt P06935). As to the kind of experiment: Inhibition of West Nile virus NS2B-NS3 protease at 50 uM by biochemical enzymatic assay relative to control.
Series [6] has as its target T2, Genome polyprotein (dengue virus type 2, UniProt P29990). The series can be described thus: Inhibition of DENV-2 NS2B-NS3 protease by biochemical enzymatic assay.
A short description of series [7]: Stability of the compound assessed as alpha-chymotrypsin (unknown origin) mediated compound degradation incubated for 60 mins by UV-based HPLC analysis. It is filed as ADME. As to conditions: human, 1 h.
Series [8] deals with T1, Trypsin. The series can be described thus: Stability of the compound assessed as trypsin (unknown origin) mediated compound degradation incubated for 60 mins by UV-based HPLC analysis. It is filed as ADME, protein assay. As to conditions: 1 h.
The nature of series [9]: Metabolic stability in rat liver microsomes measured for 120 mins by UV-based HPLC analysis. The format is ADME, Microsome. As to conditions: 2 h.
Series [10] deals with T2, Genome polyprotein. As to the kind of experiment: Competitive inhibition of DENV-2 NS2B-NS3 protease assessed as inhibition constant by Cheng-Prusoff plot analysis.
In series [11] the target is Genome polyprotein (West Nile virus, UniProt P06935). As to the kind of experiment: Inhibition of West Nile virus NS2B-NS3 protease by biochemical enzymatic assay.
Genome polyprotein (West Nile virus, UniProt P06935), sequence (P06935 1371-1501 limits assumed): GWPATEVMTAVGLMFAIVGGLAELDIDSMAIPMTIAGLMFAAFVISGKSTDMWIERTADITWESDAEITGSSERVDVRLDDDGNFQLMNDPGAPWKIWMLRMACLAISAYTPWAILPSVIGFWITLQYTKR
Genome polyprotein (West Nile virus, UniProt P06935), sequence (P06935 1502-2120 limits assumed): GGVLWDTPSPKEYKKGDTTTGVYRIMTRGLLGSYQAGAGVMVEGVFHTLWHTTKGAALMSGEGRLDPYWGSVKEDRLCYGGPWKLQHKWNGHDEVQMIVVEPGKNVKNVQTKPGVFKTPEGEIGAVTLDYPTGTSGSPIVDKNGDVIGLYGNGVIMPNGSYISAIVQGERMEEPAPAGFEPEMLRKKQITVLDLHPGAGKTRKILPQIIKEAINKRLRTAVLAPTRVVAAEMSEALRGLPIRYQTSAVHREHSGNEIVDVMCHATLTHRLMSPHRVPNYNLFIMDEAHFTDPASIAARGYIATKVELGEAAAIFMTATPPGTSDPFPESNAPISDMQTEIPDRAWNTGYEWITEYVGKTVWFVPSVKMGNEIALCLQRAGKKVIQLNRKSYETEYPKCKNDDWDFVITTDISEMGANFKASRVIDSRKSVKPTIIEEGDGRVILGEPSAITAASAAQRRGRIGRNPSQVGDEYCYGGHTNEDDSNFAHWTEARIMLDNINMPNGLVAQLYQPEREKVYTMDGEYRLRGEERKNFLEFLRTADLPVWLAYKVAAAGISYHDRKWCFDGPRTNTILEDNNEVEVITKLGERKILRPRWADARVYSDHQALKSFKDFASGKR

Genome polyprotein (West Nile virus), sequence (P06935 whole entry): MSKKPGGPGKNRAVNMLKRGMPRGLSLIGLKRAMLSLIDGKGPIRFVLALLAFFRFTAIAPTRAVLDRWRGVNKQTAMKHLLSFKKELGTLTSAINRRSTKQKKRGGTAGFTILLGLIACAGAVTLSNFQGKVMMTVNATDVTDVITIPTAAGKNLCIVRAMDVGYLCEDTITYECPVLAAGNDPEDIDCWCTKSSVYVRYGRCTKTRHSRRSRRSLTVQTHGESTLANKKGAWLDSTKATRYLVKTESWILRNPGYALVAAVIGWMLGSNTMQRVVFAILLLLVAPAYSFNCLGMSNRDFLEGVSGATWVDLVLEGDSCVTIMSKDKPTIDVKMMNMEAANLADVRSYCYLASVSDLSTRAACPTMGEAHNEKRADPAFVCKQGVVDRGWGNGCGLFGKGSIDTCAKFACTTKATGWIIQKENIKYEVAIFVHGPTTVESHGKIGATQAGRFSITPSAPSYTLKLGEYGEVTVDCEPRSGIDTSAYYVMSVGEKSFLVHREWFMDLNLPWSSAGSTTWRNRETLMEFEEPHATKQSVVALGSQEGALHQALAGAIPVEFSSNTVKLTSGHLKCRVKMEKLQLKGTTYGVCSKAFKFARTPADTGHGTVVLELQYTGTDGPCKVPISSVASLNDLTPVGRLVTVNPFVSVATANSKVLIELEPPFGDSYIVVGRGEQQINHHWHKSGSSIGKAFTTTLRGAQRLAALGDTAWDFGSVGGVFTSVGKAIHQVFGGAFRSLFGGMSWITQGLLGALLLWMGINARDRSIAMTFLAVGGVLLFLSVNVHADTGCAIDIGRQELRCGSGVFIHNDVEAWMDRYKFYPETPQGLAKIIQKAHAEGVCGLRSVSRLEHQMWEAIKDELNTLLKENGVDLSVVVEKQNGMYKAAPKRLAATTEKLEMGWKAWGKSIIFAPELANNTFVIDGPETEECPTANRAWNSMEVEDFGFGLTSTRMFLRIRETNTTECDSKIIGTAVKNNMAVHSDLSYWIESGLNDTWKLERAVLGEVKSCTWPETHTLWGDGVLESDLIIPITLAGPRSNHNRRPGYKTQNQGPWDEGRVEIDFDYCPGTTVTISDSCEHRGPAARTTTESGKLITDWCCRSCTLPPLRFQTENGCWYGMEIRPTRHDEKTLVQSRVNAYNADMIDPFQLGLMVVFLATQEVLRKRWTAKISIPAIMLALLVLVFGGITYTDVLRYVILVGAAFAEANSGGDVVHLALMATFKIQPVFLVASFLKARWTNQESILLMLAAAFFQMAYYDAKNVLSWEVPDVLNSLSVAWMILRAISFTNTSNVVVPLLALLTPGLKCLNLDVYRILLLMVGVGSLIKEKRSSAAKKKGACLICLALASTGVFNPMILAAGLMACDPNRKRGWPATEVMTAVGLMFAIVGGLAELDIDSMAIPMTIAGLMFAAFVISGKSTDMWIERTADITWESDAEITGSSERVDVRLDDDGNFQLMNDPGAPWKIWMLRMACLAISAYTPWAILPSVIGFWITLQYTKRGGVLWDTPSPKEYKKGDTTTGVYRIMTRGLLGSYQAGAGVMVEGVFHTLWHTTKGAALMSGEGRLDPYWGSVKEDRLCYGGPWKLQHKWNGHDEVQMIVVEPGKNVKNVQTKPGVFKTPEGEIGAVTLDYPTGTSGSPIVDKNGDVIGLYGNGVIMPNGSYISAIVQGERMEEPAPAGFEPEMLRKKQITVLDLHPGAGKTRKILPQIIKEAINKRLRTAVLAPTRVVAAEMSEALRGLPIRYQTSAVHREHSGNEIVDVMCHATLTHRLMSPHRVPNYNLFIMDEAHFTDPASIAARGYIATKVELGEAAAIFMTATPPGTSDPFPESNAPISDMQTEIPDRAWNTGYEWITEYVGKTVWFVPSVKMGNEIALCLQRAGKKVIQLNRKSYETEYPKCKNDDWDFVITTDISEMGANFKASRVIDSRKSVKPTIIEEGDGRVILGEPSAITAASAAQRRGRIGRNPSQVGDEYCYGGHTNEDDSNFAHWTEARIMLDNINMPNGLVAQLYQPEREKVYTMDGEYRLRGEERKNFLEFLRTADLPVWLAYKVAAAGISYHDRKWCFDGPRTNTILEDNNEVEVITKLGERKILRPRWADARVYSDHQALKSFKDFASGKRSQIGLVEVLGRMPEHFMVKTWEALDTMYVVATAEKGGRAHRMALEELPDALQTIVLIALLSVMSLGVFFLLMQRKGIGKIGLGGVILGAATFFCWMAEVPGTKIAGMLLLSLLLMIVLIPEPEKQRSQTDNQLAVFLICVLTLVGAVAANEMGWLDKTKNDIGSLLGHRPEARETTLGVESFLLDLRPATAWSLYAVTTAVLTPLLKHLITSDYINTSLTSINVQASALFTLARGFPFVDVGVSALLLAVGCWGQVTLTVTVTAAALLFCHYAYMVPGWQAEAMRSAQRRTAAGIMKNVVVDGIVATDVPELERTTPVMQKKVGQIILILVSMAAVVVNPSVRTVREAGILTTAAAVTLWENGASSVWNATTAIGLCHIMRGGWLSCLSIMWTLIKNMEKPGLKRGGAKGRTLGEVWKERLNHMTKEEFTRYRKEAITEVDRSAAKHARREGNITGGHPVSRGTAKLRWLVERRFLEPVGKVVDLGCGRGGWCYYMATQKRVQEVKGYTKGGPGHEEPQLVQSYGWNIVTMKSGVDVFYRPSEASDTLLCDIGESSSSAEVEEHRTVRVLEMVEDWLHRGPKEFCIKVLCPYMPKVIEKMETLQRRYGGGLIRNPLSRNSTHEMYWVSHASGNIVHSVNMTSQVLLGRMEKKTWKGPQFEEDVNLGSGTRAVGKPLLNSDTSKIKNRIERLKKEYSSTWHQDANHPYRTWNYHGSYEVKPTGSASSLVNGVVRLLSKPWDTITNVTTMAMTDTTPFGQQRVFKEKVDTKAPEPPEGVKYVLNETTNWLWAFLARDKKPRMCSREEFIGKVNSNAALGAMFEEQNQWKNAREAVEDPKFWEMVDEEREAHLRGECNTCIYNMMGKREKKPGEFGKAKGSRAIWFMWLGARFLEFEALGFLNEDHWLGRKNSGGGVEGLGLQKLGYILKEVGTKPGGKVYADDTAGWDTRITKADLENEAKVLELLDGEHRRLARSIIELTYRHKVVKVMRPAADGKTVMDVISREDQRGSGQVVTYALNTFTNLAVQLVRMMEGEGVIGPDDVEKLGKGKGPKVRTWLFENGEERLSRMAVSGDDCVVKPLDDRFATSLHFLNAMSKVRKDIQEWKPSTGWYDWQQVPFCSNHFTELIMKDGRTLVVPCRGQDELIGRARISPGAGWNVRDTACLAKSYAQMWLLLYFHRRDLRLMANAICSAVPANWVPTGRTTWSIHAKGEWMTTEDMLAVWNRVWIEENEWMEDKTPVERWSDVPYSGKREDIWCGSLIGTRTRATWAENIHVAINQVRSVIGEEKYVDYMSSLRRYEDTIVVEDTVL

Regarding `N=C(N)NCCC[C@H](NS(=O)(=O)c1ccc(Cl)cc1)C(=O)N[C@@H](CCCCN)C(=O)N[C@@H](C(N)=O)c1ccccc1`, the inhibition in [1] was below 10%; in [2], 44.5%; at Trypsin [3], below 10%; in series [5], 15.5%. The compound also yielded a 50% cytotoxic concentration (CC50) in series [4] above 50 µM.
Regarding `CC(C)c1cc(C(C)C)c(S(=O)(=O)N[C@@H](CCCNC(=N)N)C(=O)N[C@@H](CCCCN)C(=O)N[C@@H](C(N)=O)c2ccccc2)c(C(C)C)c1`, the inhibition in series [1] is below 10%; in series [2] it was 20.2%; on Trypsin [3] it was below 10%; in series [5], below 10%. In series [4], this compound gave a CC50 above 50 µM.
In the case of `N=C(N)NCCC[C@H](NS(=O)(=O)C1CCCCC1)C(=O)N[C@@H](CCCCN)C(=O)N[C@@H](C(N)=O)c1ccccc1`, the inhibition is below 10% in series [1], 65.2% in [2], 17.4% against Trypsin [3] and below 10% in [5]. The compound further registered a CC50 in series [4] above 50 µM.
Turning to `CN([C@@H](Cc1cccc(N)c1)C(=O)N[C@@H](CCCCN)C(=O)N[C@@H](C(N)=O)c1ccccc1)S(=O)(=O)c1ccccc1`, the inhibition in series [1] is below 10%; in series [2], 20.4%; on Trypsin [3], below 10%; in series [5] it was below 10%.
Regarding `CN([C@@H](CCCNC(=N)N)C(=O)N[C@@H](CCCCN)C(=O)N[C@H](C(N)=O)c1ccccc1)S(=O)(=O)c1ccccc1`, the inhibition in [1] was below 10%; in series [2] it was 75.3%; against Trypsin [3], below 10%; in series [5] it was below 10%. The compound also registered a 50% inhibitory concentration (IC50) at Genome polyprotein [6] of 17.6 µM. In series [4], this compound displayed a CC50 above 50 µM.
`CN([C@@H](Cc1cccc(NC(=N)N)c1)C(=O)N[C@@H](CCCCN)C(=O)N[C@@H](C(N)=O)c1ccccc1)S(=O)(=O)c1ccccc1`: the inhibition in [1] is 30.2%; in series [2], 78.6%; against Trypsin [3], below 10%; in series [5], 10.1%. Also, inhibition against Genome polyprotein [6] was half-maximal at 13.2 µM (IC50).
On to `N=C(N)NCCC[C@H](NC(=O)c1ccccc1)C(=O)N[C@@H](CCCCN)C(=O)N[C@@H](C(N)=O)c1ccc(OCc2ccccc2)cc1`, for which the inhibition in series [1] is below 10%. For the same compound, the CC50 in [4] was above 50 µM.
As for `CN([C@@H](CCCNC(=N)N)C(=O)N[C@@H](CCCCN)C(=O)N[C@@H](C(N)=O)c1ccccc1)S(=O)(=O)c1ccccc1`, the inhibition is below 10% in series [1], 80.6% in series [2], below 10% at Trypsin [3] and below 10% in series [5]. Besides, the Stability entry (in series [7]; on Trypsin [8]; in series [9]) was “Stable” throughout. Also, the half-inhibitory concentration (IC50) at Genome polyprotein [6] worked out at 11 µM. In [4], this compound displayed a CC50 above 50 µM.
`CN([C@@H](Cc1ccc(C(=N)N)cc1)C(=O)N[C@@H](CCCCN)C(=O)N[C@H](C(N)=O)c1ccc(OCc2ccccc2)cc1)S(=O)(=O)c1ccccc1`: the inhibition in [1] worked out at 23.4%; in [2] it was 102%; against Trypsin [3], 34.3%; in series [5], 20.2%. Further, the 50% inhibitory concentration (IC50) on Genome polyprotein [6] is 0.2 µM.
On to `CC[C@H](NC(=O)[C@H](Cc1cccc(NC(=N)N)c1)N(C)S(=O)(=O)c1ccc(C)cc1)C(=O)N[C@@H](C(N)=O)c1ccccc1`, for which the inhibition in series [1] was 18.1%; in [2], 74.3%; against Trypsin [3], below 10%; in series [5], below 10%. The IC50 against Genome polyprotein [6] turned out to be 18.9 µM.
`CN(C)c1cccc2c(S(=O)(=O)N[C@@H](CCCNC(=N)N)C(=O)N[C@@H](CCCCN)C(=O)N[C@@H](C(N)=O)c3ccccc3)cccc12`: the inhibition in series [1] was 2.3%; in [2], 35.3%; against Trypsin [3] it was 10.7%; in [5] it was below 10%. The compound also gave a CC50 in [4] above 50 µM.
Regarding `CN([C@@H](CCCNC(=N)N)C(=O)N[C@@H](CCCCN)C(=O)N[C@@H](C(N)=O)c1ccccc1)S(=O)(=O)c1ccc(Cl)cc1`, the inhibition was below 10% in series [1], 75.1% in series [2], 13% against Trypsin [3] and below 10% in [5]. In addition, the midpoint of inhibition on Genome polyprotein [6], the IC50, lay at 19.4 µM.
For `CN(C)C(=O)COC(=O)Cc1ccc(OC(=O)c2ccc(NC(=N)N)cc2)cc1`, in series [1], the inhibition amounted to 99%.
As to `Cc1cc(C)c(S(=O)(=O)N[C@@H](CCCNC(=N)N)C(=O)N[C@@H](CCCCN)C(=O)N[C@@H](C(N)=O)c2ccccc2)c(C)c1`, the inhibition is below 10% in series [1], 35.9% in series [2], below 10% against Trypsin [3] and below 10% in [5]. The half-maximal cytotoxic concentration (CC50) in [4] was above 50 µM.
Regarding `Cc1ccc(S(=O)(=O)N(C)[C@@H](CCCNC(=N)N)C(=O)N[C@@H](CCCCN)C(=O)N[C@@H](C(N)=O)c2ccccc2)cc1`, the inhibition in [1] was below 10%; in series [2] it was 75.8%; against Trypsin [3], 20.3%; in series [5], below 10%. The compound further registered an IC50 on Genome polyprotein [6] of 17.9 µM. The CC50 in series [4] is above 50 µM.
In the case of `Cc1ccc(S(=O)(=O)N(C)[C@@H](Cc2cccc(N)c2)C(=O)N[C@@H](CCCCN)C(=O)N[C@@H](C(N)=O)c2ccccc2)cc1`, the inhibition in [1] is below 10%; in series [2] it was 23.2%; against Trypsin [3] it was below 10%; in [5], below 10%.
Take `CN([C@@H](Cc1ccc(/C(N)=N/O)cc1)C(=O)N[C@@H](CCCCN)C(=O)N[C@@H](C(N)=O)c1ccccc1)S(=O)(=O)c1ccccc1`: the inhibition is below 10% in [1], 58.5% in [2], below 10% against Trypsin [3] and below 10% in [5]. Further, the CC50 in [4] was above 50 µM.
Turning to `N=C(N)NCCC[C@H](NS(=O)(=O)c1ccc([N+](=O)[O-])cc1)C(=O)N[C@@H](CCCCN)C(=O)N[C@@H](C(N)=O)c1ccccc1`, the inhibition was below 10% in series [1], 24.7% in [2], 30.6% at Trypsin [3] and 18.4% in [5]. In [4], this compound showed a half-maximal cytotoxic concentration (CC50) above 50 µM.
As to `CN([C@@H](Cc1ccc(C(=N)N)cc1)C(=O)N[C@@H](CCCCN)C(=O)N[C@@H](C(N)=O)c1ccc(OCc2ccccc2)cc1)S(=O)(=O)c1ccccc1`, the inhibition in series [1] stood at 22.9%; in series [2] it was 99%; at Trypsin [3], 22%; in [5] it was 68.9%. Moreover, the inhibition constant (Ki) at Genome polyprotein [10] was 0.092 µM. Besides, the figures for the half-inhibitory concentration (IC50) against Genome polyprotein [6] and on Genome polyprotein [11] were 0.11 µM and 22.2 µM, respectively. In series [4], this compound showed a CC50 above 200 µM.
Take `Cc1ccc(S(=O)(=O)N[C@@H](CCCNC(=N)N)C(=O)N[C@@H](CCCCN)C(=O)N[C@@H](C(N)=O)c2ccccc2)cc1`: the inhibition in series [1] was below 10%; in series [2] it was 50.5%; against Trypsin [3] it was 21.6%; in [5] it was 17.7%. In series [4], this compound had a CC50 above 50 µM.
Consider `CN([C@@H](Cc1ccc(NC(=N)N)cc1)C(=O)N[C@@H](CCCCN)C(=O)N[C@@H](C(N)=O)c1ccccc1)S(=O)(=O)c1ccccc1`, for which the inhibition in series [1] was below 10%; in series [2] it was 97.6%; on Trypsin [3], 17.1%; in series [5], 14.9%. For the same compound, the Stability result (in [7]; at Trypsin [8]; in series [9]) was “Stable” in each case. The IC50 on Genome polyprotein [6] stood at 2.72 µM. In series [4], this compound came in with a cytotoxic concentration (CC50) above 50 µM.
In the case of `N=C(N)NCCC[C@H](NS(=O)(=O)c1ccccc1)C(=O)N[C@@H](CCCCN)C(=O)N[C@@H](C(N)=O)c1ccccc1`, the inhibition in series [1] was below 10%; in series [2] it was 44.3%; on Trypsin [3] it was below 10%; in series [5], 22.3%. In [4], the 50% cytotoxic concentration (CC50) is above 50 µM. Further, the Stability result in series [9] is reported as “Stable”.
As for `CN([C@@H](Cc1ccc(C(=N)N)cc1)C(=O)N[C@@H](CCCCN)C(=O)N[C@@H](C(N)=O)c1ccc(O)cc1)S(=O)(=O)c1ccccc1`, the inhibition was found to be 30.3% in series [1], 101% in series [2], 14.7% against Trypsin [3] and 33.7% in series [5]. Also, the IC50 against Genome polyprotein [6] came out at 0.44 µM.
In the case of `N=C(N)Nc1ccc(C[C@H](NS(=O)(=O)c2ccccc2)C(=O)N[C@@H](CCCCN)C(=O)N[C@@H](C(N)=O)c2ccccc2)cc1`, the inhibition is below 10% in [1], 52.6% in series [2], below 10% at Trypsin [3] and below 10% in [5]. The Stability entry (in series [7]; on Trypsin [8]; in series [9]) was “Stable” throughout. For the same compound, the CC50 in series [4] was above 50 µM.
Take `CN([C@@H](Cc1ccc(C(=N)N)cc1)C(=O)N[C@@H](CCCCN)C(=O)N[C@@H](C(N)=O)c1ccc(OCc2ccc(C(F)(F)F)cc2)cc1)S(=O)(=O)c1ccccc1`: the inhibition in series [1] is 15.8%; in [2], 99.2%; on Trypsin [3], 18.3%; in series [5], 80.4%. Moreover, the IC50 was found to be 0.12 µM against Genome polyprotein [6] and 13.9 µM against Genome polyprotein [11]. In addition, it took 75.3 µM to reach half-maximal cytotoxicity in series [4] (CC50).
As to `Cc1ccc(S(=O)(=O)N(C)[C@@H](Cc2ccc(NC(=N)N)cc2)C(=O)N[C@@H](CCCCN)C(=O)N[C@@H](C(N)=O)c2ccccc2)cc1`, the inhibition was below 10% in series [1], 95% in series [2], 19.9% at Trypsin [3] and below 10% in [5]. It took 1.63 µM to reach half-maximal inhibition against Genome polyprotein [6] (IC50). This compound gave a CC50 in series [4] above 50 µM.
